# Experimental data taken from US7247734B2 (Vernalis (Cambridge) Limited, priority 2001, dated 2007).
# Tested on: HSP70 and client protein (CDK4) expression in HT29 cells
# Experiment: Western blotting of HSP70 and CDK4 in HT29 cells
# Assay type: cell-based, human
# Conditions: 24 hours, various concentrations
# Protocol: The cellular effects of HSP90 inhibitors can be measured using a number of molecular markers. As already mentioned, HSP90 inhibition leads to the depletion of several important cellular signalling proteins. […] Depletion is normally observed by 6 h, with maximum depletion occurring at 24 h. As well as RAF-1, depletion of several other HSP90 client proteins can be measured by immunoblotting e.g., CDK4, ERBB2. However, it is important to note that some of these proteins are cell line specific e.g., ERBB2 is expressed mainly in breast, thyroid, kidney and some ovarian tumour cell lines. Another very important marker of HSP90 inhibition is heat shock protein 70 (HSP70). A HSF-1 (heatshock factor 1) dependent increase in HSP70 levels has been reported by us and other groups (see, e.g., Whitesell et al., 1994; Clarke et al., 2000) and this effect can serve as a positive indicator of HSP90 inhibitor action. The immunoblotting method described is based on standard techniques but is described in detail for ease of reference.
# Prepare as required and store at −20° C. • (4) Bicinchoninic acid (BCA) protein assay reagents (PerBio Science UK, Ltd., Chester, UK). • (5) Casein blocking buffer (0.5% casein, 0.02% thimerosal, in PBS). Store at 4° C. for up to 2 weeks. • (6) Wash buffer (phosphate buffered saline, PBS) containing 0.05% Tween 20). • (7) Tris-glycine gradient polyacrylamide precast gels (4–20%) (1 mm thick) (Novex, InVitrogen, Groningen, NL). • (8) Nitro-cellulose membrane (0.2 μm pore size) (InVitrogen, Groningen, NL). • (9) Ponceau Red stain (2% w/v in 30% TCA/30% […], Sigma Aldrich Ltd., Pool, UK). • (10) Enhanced chemiluminescence (SuperSignal) reagents (PerBio Science UK, Ltd., Chester, UK). • (11) Photographic film (Hyperfilm ECL, Amersham Pharmacia Biotech, Little Chalfont, Bucks, UK). Method
# The following protocol was used: • (1) Lyse cells (approx 4×10^6) in 100 μl lysis buffer for 30 minutes on ice. When adding the lysis buffer, shear cells by pipetting up and down using a Gilson P200 pipette. • (2) Spin lysates for 10 min at 13,000 rpm at 4° C., retrieve supernatant and store at −70° C. • (3) Determine protein concentration using BCA protein assay reagents. • (4) Load samples of cell lysates (50 μg protein/lane) onto gel and separate proteins by SDS-polyacrylamide gel electrophoresis (SDS-PAGE) using a 4–20% Tris-glycine gel. • (5) Transfer proteins to nitrocellulose membrane using optimum conditions for the equipment available. For example, 150 mA for 2 h using the Mighty Small transfer system (Hoeffer TE22 Mini Tank Transphor Unit, Amersham Pharmacia Biotech, Little Chalfont, Bucks, UK). […]
# Comments • (1) The protein bands are normally evaluated visually. […]
smiles,measurement,value
"CCc1cc(-c2n[nH]c(C)c2-c2ccc3c(c2)OCCO3)c(O)cc1O [CCT018159, 4-[4-(2,3-Dihydro-benzo[1,4]dioxin-6-yl)-5-methyl-1H-pyrazol-3-yl]-6-ethyl-benzene-1,3-diol]",CDK4 client protein expression (immunoblot),depleted
same,HSP70 expression (immunoblot),elevated HSP70 expression
